Drawing on patent US10654834B2 (Venenum Biodesign, LLC, priority 2016, dated 2020), this text covers EC50 for one molecule.

The target in this experiment is T1, mouse TGR5 receptor (Mus musculus, UniProt Q80SS6).
T1 construct: host or cells: HEK293-EBNA (293 c18, ATCC CRL10852)
T1 sequence (Q80SS6 1-329): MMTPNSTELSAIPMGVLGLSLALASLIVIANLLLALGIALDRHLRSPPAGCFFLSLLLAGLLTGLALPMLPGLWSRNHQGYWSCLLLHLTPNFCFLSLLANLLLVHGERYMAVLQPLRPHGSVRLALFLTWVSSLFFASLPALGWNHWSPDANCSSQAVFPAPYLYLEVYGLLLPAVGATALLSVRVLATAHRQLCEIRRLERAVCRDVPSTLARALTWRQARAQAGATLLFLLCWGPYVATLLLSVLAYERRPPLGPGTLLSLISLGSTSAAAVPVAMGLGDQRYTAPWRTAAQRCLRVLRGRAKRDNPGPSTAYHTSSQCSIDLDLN
The experiment can be described thus: Mouse TGR5 luminescent cAMP production assay (HEK293-EBNA cells, DiscoveRx cAMP XS+ kit). It counts as cell-based. As to conditions: HEK293-EBNA cells overexpressing mouse TGR5, luminescent cAMP assay; read-out: Mouse TGR5 Lum. cAMP Activity (EC50). The method in brief: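 HEK293-EBNA cells stably expressing mouse TGR5, resuspended in serum-free DMEM with 500 μM IBMX, were premixed 20 min with cAMP antibody, then exposed to half-log compound dilutions for 1 h at room temperature. cAMP was read by luminescent enzyme-fragment complementation (cAMP XS+) after overnight incubation; EC50 derived.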
For orientation: Cyclic AMP is a second messenger, typically raised through Gs and lowered through Gi signalling.

In the case of `N#Cc1ccc(CCNC(=O)[C@@H]2CCCN2c2cc(N3CCC(CO)CC3)nc(C(F)(F)F)n2)cc1` [Compound 1, (S)—N-(4-cyanophenethyl)-1-(6-(4-(hydroxymethyl)piperidin-1-yl)-2-(trifluoromethyl)pyrimidin-4-yl)pyrrolidine-2-carboxamide], the EC50 was less than 100 nM.

The EC50 is the midpoint of the concentration-response curve.
